Values quoted from earlier work in patent publication US11517624B2, “Pharmaceutical composition for the parenteral administration of ultrashort-effective β-adrenoreceptor antagonists” (AOP ORPHAN PHARMACEUTICALS AG, priority 2007, dated 2022).

For `COCCc1ccc(OCC(O)CNC(C)C)cc1` (stereo not shown) [metoprolol], the “elimination half-life t1/2” value is given as 1.5 h.
